Molecular target: Cdk9/cyclinT1 (Homo sapiens, UniProt P50750)
Assay: Cdk9/cyclinT1 IMAP protocol (fluorescence polarization)
Conditions: IC-50, CDK9; lower limit of assay 0.0005 micromolar

Sequence of Cdk9/cyclinT1 (P50750 whole entry): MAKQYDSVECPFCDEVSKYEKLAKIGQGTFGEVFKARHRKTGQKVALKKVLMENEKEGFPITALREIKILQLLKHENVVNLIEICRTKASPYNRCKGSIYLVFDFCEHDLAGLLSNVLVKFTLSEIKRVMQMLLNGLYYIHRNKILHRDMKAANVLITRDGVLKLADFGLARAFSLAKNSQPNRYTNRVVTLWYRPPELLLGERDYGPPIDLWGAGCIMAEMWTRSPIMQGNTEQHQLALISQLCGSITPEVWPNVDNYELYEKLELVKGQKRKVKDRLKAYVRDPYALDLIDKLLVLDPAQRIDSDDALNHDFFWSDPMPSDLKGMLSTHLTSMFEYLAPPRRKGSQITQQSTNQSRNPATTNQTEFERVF
Sequence of Cdk9/cyclinT1 (O60563 whole entry partner): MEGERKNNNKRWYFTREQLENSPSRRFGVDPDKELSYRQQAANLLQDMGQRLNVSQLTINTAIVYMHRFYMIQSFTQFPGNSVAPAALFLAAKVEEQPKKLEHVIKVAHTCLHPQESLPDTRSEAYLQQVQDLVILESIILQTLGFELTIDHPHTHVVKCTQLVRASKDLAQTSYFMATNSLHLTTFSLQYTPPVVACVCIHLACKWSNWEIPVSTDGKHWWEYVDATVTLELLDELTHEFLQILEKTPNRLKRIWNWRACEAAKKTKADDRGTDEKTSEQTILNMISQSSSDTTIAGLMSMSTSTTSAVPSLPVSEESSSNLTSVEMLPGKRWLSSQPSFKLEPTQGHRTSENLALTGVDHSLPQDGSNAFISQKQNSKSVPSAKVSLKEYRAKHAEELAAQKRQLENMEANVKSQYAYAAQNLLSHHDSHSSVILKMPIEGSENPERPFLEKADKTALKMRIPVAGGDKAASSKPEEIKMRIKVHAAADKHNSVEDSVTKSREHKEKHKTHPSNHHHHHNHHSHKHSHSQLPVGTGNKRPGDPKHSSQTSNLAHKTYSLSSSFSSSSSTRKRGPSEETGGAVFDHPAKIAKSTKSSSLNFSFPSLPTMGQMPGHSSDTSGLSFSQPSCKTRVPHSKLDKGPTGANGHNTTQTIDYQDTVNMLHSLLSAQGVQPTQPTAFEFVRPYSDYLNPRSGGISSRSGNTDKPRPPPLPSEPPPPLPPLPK

Structure (SMILES) | IC50 [nM]
COC[C@H](C)N[C@H]1CC[C@H](Nc2cc(-c3ccc(F)c(NC[C@@H]4CCOC(C)(C)C4)n3)c(Cl)cn2)CC1 [Compound 462, 5′-chloro-N6-(((R)-2,2-dimethyltetrahydro-2H-pyran-4-yl)methyl)-5-fluoro-N2′-(trans-4-(((S)-1-methoxypropan-2-yl)amino)cyclohexyl)-[2,4′-bipyridine]-2′,6-diamine] | 1.2
COC[C@H](C)N[C@H]1CC[C@H](Nc2cc(-c3ccc(F)c(NC[C@H]4CCOC(C)(C)C4)n3)c(Cl)cn2)CC1 [Compound 463, 5′-chloro-N6-(((S)-2,2-dimethyltetrahydro-2H-pyran-4-yl)methyl)-5-fluoro-N2′-(trans-4-(((S)-1-methoxypropan-2-yl)amino)cyclohexyl)-[2,4′-bipyridine]-2′,6-diamine] | 1.9
N#CC1(CNc2cccc(-c3cc(N[C@H]4CC[C@H](N)CC4)ncc3Cl)n2)CCOCC1 [Compound 464, 4-(((2′-((trans-4-aminocyclohexyl)amino)-5′-chloro-[2,4′-bipyridin]-6-yl)amino)methyl)tetrahydro-2H-pyran-4-carbonitrile] | < 0.5
N#CC1(CNc2cccc(-c3cc(N[C@H]4CC[C@@H](N)CC4)ncc3Cl)n2)CCOCC1 [Compound 465, 4-(((2′-((cis-4-aminocyclohexyl)amino)-5′-chloro-[2,4′-bipyridin]-6-yl)amino)methyl)tetrahydro-2H-pyran-4-carbonitrile] | 1.2
CC1(CNc2nc(-c3cc(N[C@H]4CC[C@@H](N)CC4)ncc3Cl)ccc2F)CCOCC1 [Compound 466] | 3.9
N#CC1(CNc2cccc(-c3cc(N[C@H]4CC[C@H](NC5CCOC5)CC4)ncc3Cl)n2)CCOCC1 (stereo partly drawn) [Compound 467, 4-(((5′-chloro-2′-((trans-4-((tetrahydrofuran-3-yl)amino)cyclohexyl)amino)-[2,4′-bipyridin]-6-yl)amino)methyl)tetrahydro-2H-pyran-4-carbonitrile] | < 0.5
N#CC1(CNc2cccc(-c3cc(N[C@H]4CC[C@H](NCC5CCCO5)CC4)ncc3Cl)n2)CCOCC1 (stereo partly drawn) [Compound 468, 4-(((5′-chloro-2′-((trans-4-(((tetrahydrofuran-2-yl)methyl)amino)cyclohexyl)amino)-[2,4′-bipyridin]-6-yl)amino)methyl)tetrahydro-2H-pyran-4-carbonitrile] | < 0.5
N#CC1(CNc2cccc(-c3cc(N[C@H]4CC[C@H](N[C@H]5CCOC5)CC4)ncc3Cl)n2)CCOCC1 [Compound 469, 4-(((5′-chloro-2′-((trans-4-(((S)-tetrahydrofuran-3-yl)amino)cyclohexyl)amino)-[2,4′-bipyridin]-6-yl)amino)methyl)tetrahydro-2H-pyran-4-carbonitrile] | < 0.5
N#CC1(CNc2cccc(-c3cc(N[C@H]4CC[C@H](N[C@@H]5CCOC5)CC4)ncc3Cl)n2)CCOCC1 [Compound 470, 4-(((5′-chloro-2′-((trans-4-(((R)-tetrahydrofuran-3-yl)amino)cyclohexyl)amino)-[2,4′-bipyridin]-6-yl)amino)methyl)tetrahydro-2H-pyran-4-carbonitrile] | < 0.5
COC[C@@H](C)N[C@H]1CC[C@H](Nc2cc(-c3cccc(NCC4(C#N)CCOCC4)n3)c(F)cn2)CC1 [Compound 471, 4-(((5′-fluoro-2′-((trans-4-(((R)-1-methoxypropan-2-yl)amino)cyclohexyl)amino)-[2,4′-bipyridin]-6-yl)amino)methyl)tetrahydro-2H-pyran-4-carbonitrile] | < 0.5
N#CC1(CNc2cccc(-c3cc(N[C@H]4CC[C@H](NC[C@@H]5CCCO5)CC4)ncc3Cl)n2)CCOCC1 [Compound 472, 4-(((5′-chloro-2′-((trans-4-((((S)-tetrahydrofuran-2-yl)methyl)amino)cyclohexyl)amino)-[2,4′-bipyridin]-6-yl)amino)methyl)tetrahydro-2H-pyran-4-carbonitrile] | < 0.5
N#CC1(CNc2cccc(-c3cc(N[C@H]4CC[C@H](NC[C@H]5CCCO5)CC4)ncc3Cl)n2)CCOCC1 [Compound 473, 4-(((5′-chloro-2′-((trans-4-((((R)-tetrahydrofuran-2-yl)methyl)amino)cyclohexyl)amino)-[2,4′-bipyridin]-6-yl)amino)methyl)tetrahydro-2H-pyran-4-carbonitrile] | < 0.5
COCCN[C@H]1CC[C@H](Nc2cc(-c3cccc(NCC4(C#N)CCOCC4)n3)c(F)cn2)CC1 [Compound 474, 4-(((5′-fluoro-2′-((trans-4-((2-methoxyethyl)amino)cyclohexyl)amino)-[2,4′-bipyridin]-6-yl)amino)methyl)tetrahydro-2H-pyran-4-carbonitrile] | < 0.5
CO[C@H]1CCN([C@H]2CC[C@H](Nc3cc(-c4cccc(NCC5(C#N)CCOCC5)n4)c(Cl)cn3)CC2)C1 [Compound 475, 4-(((5′-chloro-2′-((trans-4-((S)-3-methoxypyrrolidin-1-yl)cyclohexyl)amino)-[2,4′-bipyridin]-6-yl)amino)methyl)tetrahydro-2H-pyran-4-carbonitrile] | 0.6
CO[C@H]1CCN([C@H]2CC[C@@H](Nc3cc(-c4cccc(NCC5(C#N)CCOCC5)n4)c(Cl)cn3)CC2)C1 [Compound 476, 4-(((5′-chloro-2′-((cis-4-((S)-3-methoxypyrrolidin-1-yl)cyclohexyl)amino)-[2,4′-bipyridin]-6-yl)amino)methyl)tetrahydro-2H-pyran-4-carbonitrile] | 5.4
CO[C@@H]1CCN([C@H]2CC[C@H](Nc3cc(-c4cccc(NCC5(C#N)CCOCC5)n4)c(Cl)cn3)CC2)C1 [Compound 477, 4-(((5′-chloro-2′-((trans-4-((R)-3-methoxypyrrolidin-1-yl)cyclohexyl)amino)-[2,4′-bipyridin]-6-yl)amino)methyl)tetrahydro-2H-pyran-4-carbonitrile] | 0.8
CO[C@@H]1CCN([C@H]2CC[C@@H](Nc3cc(-c4cccc(NCC5(C#N)CCOCC5)n4)c(Cl)cn3)CC2)C1 [Compound 478, 4-(((5′-chloro-2′-((cis-4-((R)-3-methoxypyrrolidin-1-yl)cyclohexyl)amino)-[2,4′-bipyridin]-6-yl)amino)methyl)tetrahydro-2H-pyran-4-carbonitrile] | 19
N#CC1(CNc2cccc(-c3cc(N[C@H]4CC[C@H](N)CC4)ncc3F)n2)CCOCC1 [Compound 479, 4-(((2′-((trans-4-aminocyclohexyl)amino)-5′-fluoro-[2,4′-bipyridin]-6-yl)amino)methyl)tetrahydro-2H-pyran-4-carbonitrile] | < 0.5
COC[C@@H](C)N[C@H]1CC[C@H](Nc2cc(-c3cccc(NCC4(C#N)CC4)n3)c(F)cn2)CC1 [Compound 480, 1-(((5′-fluoro-2′-((trans-4-(((R)-1-methoxypropan-2-yl)amino)cyclohexyl)amino)-[2,4′-bipyridin]-6-yl)amino)methyl)cyclopropane-carbonitrile] | < 0.5
COCCN[C@H]1CC[C@H](Nc2cc(-c3ccc(F)c(NCC4(C)CCOCC4)n3)c(Cl)cn2)CC1 [Compound 481, 5′-chloro-5-fluoro-N2′-(trans-4-((2-methoxyethyl)amino)cyclohexyl)-N6-((4-methyltetrahydro-2H-pyran-4-yl)methyl)-[2,4′-bipyridine]-2′,6-diamine] | < 0.5

Source: patent publication US20130303507A1 (Novartis AG, priority 2011, published 2013)
